Measured values reported in patent publication US11571484B2, “Compositions that target tumor-associated macrophages and methods of use therefor” (Sanford Burnham Prebys Medical Discovery Institute, priority 2017, dated 2023).

How the values were obtained:
[1] = system: MEMs in B16F10 melanoma lung metastases; settings: 30 nmoles i.v., 2 h
Method: (§1) Thirty nmoles of FAM-UNO or FAM-control peptide were injected intravenously into mice and allowed to circulate for 2 h. Mice were then sacrificed and tumor and tissues were analyzed by immunofluorescence using rabbit anti-FAM (green) and rat anti-CD206 (red) antibodies, and counterstained with DAPI. […] The metastases were induced by i.v. inoculation of B16F10 melanoma cells. […] Blue: DAPI. Representative fields from multiple sections (n≥3) prepared from at least 3 tumors are shown. Scale bar: 50 μm. Images shown are representative fields from multiple sections (≥3) prepared from at least 3 tumors (n≥3 mice). The graphs show mean+SEM of FAM signal quantified as described in Materials and Methods.
(§2) Tumor models were induced according to protocols approved by the Estonian Ministry of Agriculture, Committee of Animal Experimentation (permit #48). For the 4T1 breast model, 8-week old female Balb/c mice were injected in the mammary fat pad with 10^6 cells dispersed in 50 μL of PBS. For homing studies, mice were used 10 days later, when the tumor had reached ˜150 mm^3. For MCF-7 breast model, 8-week old female nude mice were implanted with an estrogen pellet, and 1 week later inoculated with 5×10^6 MCF-7 cells in 100 μL of cold Matrigel (BD Biosciences, CA, USA). Mice were used for homing studies three weeks later (tumor volume˜150 mm^3). For the metastatic gastric carcinoma, 10^6 MKN45-P cells in PBS were injected intraperitoneally in 8-week old female nude mice. Mice were used for homing studies two weeks later. For the metastatic melanoma model, 2×10^5 B16F10 cells were injected intravenously in 100 μL of PBS in C57 BL6 mice. The mice were used for homing studies 10 days after. […]
(§3) For free peptide homing studies, mice were injected intravenously with 30 nmoles of FAM-peptides in 100 μL of PBS. […] FAM was detected using Rabbit anti-FITC (Invitrogen, CA, USA. Catalog # A-889) at a dilution of 1/100 and using Alexa Fluor-546 anti-rabbit antibody (Invitrogen, Ca, USA. Catalog # A-11035) at a dilution of 1/200.

[2] = system: MEMs in MKN45-P tumors; settings: 30 nmoles i.v., 2 h
Method: as §1, §2, §3

[3] = system: MRC1/CD206-expressing tumor-associated macrophages (MEMs) in 4T1 tumors; experiment: Free peptide homing and immunofluorescence in the orthotopic 4T1 breast tumor model; settings: 30 nmoles i.v., 2 h circulation
Method: (SEQ ID NO: 5) control peptide were injected intravenously into 4T1 tumor-bearing mice and allowed to circulate for 2 h. Mice were then sacrificed and tumor and tissues were analyzed by immunofluorescence using rabbit anti-FAM (green) and rat anti-CD206 or rat anti-TIE2 (red) antibodies, and counterstained with DAPI. All images were taken under the same imaging conditions. FAM-UNO accumulated in macrophages within tumors and lymph nodes positive for CD206 staining (A, B, C) and TIE2 (D, and H: Blow up of D). […] To ascertain that anti-CD206 is capable of detecting CD206 in the liver, an image was acquired with longer exposure time from an uninjected animal (FIG. 25). […] Green: FAM-peptide; Red: CD206 or TIE2, Blue: DAPI. Representative fields from multiple sections prepared from at least 3 tumors (n≥3 mice) are shown.
(§4) Tumor models were induced according to protocols approved by the Estonian Ministry of Agriculture, Committee of Animal Experimentation (permit #48). For the 4T1 breast model, 8-week old female Balb/c mice were injected in the mammary fat pad with 10^6 cells dispersed in 50 μL of PBS. For homing studies, mice were used 10 days later, when the tumor had reached ˜150 mm^3. For MCF-7 breast model, 8-week old female nude mice were implanted with an estrogen pellet, and 1 week later inoculated with 5×10^6 MCF-7 cells in 100 μL of cold Matrigel (BD Biosciences, CA, USA). Mice were used for homing studies three weeks later (tumor volume˜150 mm^3). For the metastatic gastric carcinoma, 10^6 MKN45-P cells in PBS were injected intraperitoneally in 8-week old female nude mice. Mice were used for homing studies two weeks later. For the metastatic melanoma model, 2×10^5 B16F10 cells were injected intravenously in 100 μL of PBS in C57 BL6 mice. The mice were used for homing studies 10 days after. For the angiogenic glioblastoma model, WT-GBM 24, 7×10^5 cells were stereotactically injected in the right striatum of Fox/Nu mice 2 mm lateral and posterior of bregma of 2.5 mm deep. The mice were used for homing studies 6-7 days after the injection.
For free peptide homing studies, mice were injected intravenously with 30 nmoles of FAM-peptides in 100 μL of PBS. For nanoparticle homing studies-FAM-UNO—NP-PTX-, mice were injected intravenously in mice bearing MCF-7 breast tumors with 1 mg of Polymer in 100 μL pf PBS and allowed to circulate for 6 h. For tissue collection, the mice were anesthetized and the tissues collected and immediately placed in 4% cold PFA and left overnight at 4-C. Tissues were washed with PBS for 2 h at room temperature and cryoprotected with sucrose 15% at 4-C overnight and then in sucrose 30% at 4·C overnight. The tumor and the control organs were placed together in the same block with OCT compound (Leica Biosystems, Wetzlar, Germany), snap-frozen in isopentane, and sectioned at 10 μm. FAM was detected using Rabbit anti-FITC (Invitrogen, CA, USA. Catalog # A-889) at a dilution of 1/100 and using Alexa Fluor-546 anti-rabbit antibody (Invitrogen, Ca, USA. Catalog # A-11035) at a dilution of 1/200. CD31 was detected using rat anti-mouse CD31 (BD Biosciences, CA, USA. Catalog #: 553370), TIE2 was detected using rat anti-mouse TIE2 (Biolegend, CA, USA. Catalog #124001), CD209 was detected using rat anti-mouse CD209 (Biolegend, CA, USA. Catalog #147802), HLA ABC was detected using rat anti Human HLA ABC (Bio-Rad, CA, USA. Product code MCA485G), and CD206 was detected using ratanti-mouse CD206 (Bio-Rad, CA, USA. Product code MCA2235GA); using 1/100 primary antibody dilution and Alexa Fluor-647 anti-Rat antibody (Invitrogen, CA, USA. Catalog #21247) at 1/200 dilution. To quantify FAM signal from confocal images, the green channel of images taken by using 20× magnification objective was opened with ImageJ, converted to 8-bit grayscale and the integrated pixel intensity was measured. Different regions of tumors from three different mice were used.

[4] = system: MEMs in WT-GBM tumors; experiment: Free peptide homing and immunofluorescence in the orthotopic WT-GBM glioblastoma model; settings: 30 nmoles i.v., 2 h
Method: as §1, §4
For free peptide homing studies, mice were injected intravenously with 30 nmoles of FAM-peptides in 100 μL of PBS. For nanoparticle homing studies-FAM-UNO—NP-PTX-, mice were injected intravenously in mice bearing MCF-7 breast tumors with 1 mg of Polymer in 100 μL pf PBS and allowed to circulate for 6 h. For tissue collection, the mice were anesthetized and the tissues collected and immediately placed in 4% cold PFA and left overnight at 4-C. Tissues were washed with PBS for 2 h at room temperature and cryoprotected with sucrose 15% at 4-C overnight and then in sucrose 30% at 4·C overnight. […] FAM was detected using Rabbit anti-FITC (Invitrogen, CA, USA. Catalog # A-889) at a dilution of 1/100 and using Alexa Fluor-546 anti-rabbit antibody (Invitrogen, Ca, USA. Catalog # A-11035) at a dilution of 1/200.

[5] = system: RAW 267.4 cells; experiment: Phage biopanning on cultured CD206- RAW 267.4 macrophages; assay type: cell-based, mouse; settings: phage-displayed peptide, 4 °C overnight
Method: A, Cultured RAW 267.4 mouse macrophages were fixed with PFA and stained with rat anti-CD206 (red) and counterstained with DAPI (blue). B, Phage display on RAW 267.4 cells. Cells were lifted using a cell scraper, centrifuged, brought to 4° C. and incubated with 0.5 mL of the same phage library used for the in vivo experiments (0.5 mL of 7×10^10 pfu/mL)+0.5 mL of DMEM, at 4° C. overnight. Cells were then washed four times resuspending in PBS and placing in a new tube every time, lastly the cells were suspended in LB+NP40%, lysed and phage insert were sequenced. The UNO clone is […] of the list (red). Only the top 50 hits from the screen are shown. Scale bar: 50 μm.
Mouse macrophage cell line Raw 267.4 (ATCC, VA, USA) was cultured in DMEM with FBS and antibiotics. Cells from a 25 cm^2 flask (˜3×10^6 cells) were lifted using a cell scraper, centrifuged, brought to 4. C and incubated with 0.5 mL of the same purified library used for the in vivo experiments (0.5 mL of 7×10^10 pfu/mL)+0.5 mL of DMEM, at 4-C overnight. Cells were then washed four times by re-suspending in PBS and placing them in a new tube every time, and finally suspended in LB+1% NP40, lysed and subjected to high throughput sequencing.

[6] = system: peritoneal macrophages; experiment: In vivo phage display on peritoneal cells of 4T1 tumor-bearing versus normal mice; design: species or system mouse; settings: phage-displayed peptide
Method: A, Naive phage library was injected intraperitoneally in 4T1 tumor-bearing mice and age-matched normal mice, and allowed to circulate for two h. Peritoneal cells were collected, the accompanying phages were rescued and the peptide-encoding segment of phage DNA was sequenced. […] Peritoneal cells were extracted from the mice, seeded on coverslips, allowed to attach for 2 h, fixed, permeabilized, and stained for CD206. CD206+ cells were counted from 6 different confocal images, 2 from each mouse. C, Highly repeated sequences obtained from the first round of the biopanning experiment shown schematically in panel A. D, Frequency of phage clones encoding UNO or a randomly picked peptide (CIGVSSDC) divided by the total number of repeated sequences) in the 4T1 tumor-bearing and normal mice.
Ten days later, the 4T1 mouse and a Balb/c female mouse of the matched age, were injected with 500 μL of a 7×10^10 pfu/mL of purified CX7C long-circulating library that bears a mutation on the p17 protein of tail fiber^45. After 2 h the mice were anesthetized and peritoneal cells were collected, washed by centrifugation, and lysed by hand-held homogenizer in 2 mL of LB+NP40 1%. The phage was amplified in E. coli strain BLT5403 for high throughput sequencing of peptide encoding segment of the phage genomic DNA using Ion Torrent semiconductor sequencing system.
In vivo phage display was carried out on orthotopic breast cancer bearing mice as outlined in FIG. 1A. Compared to peritoneal cells of healthy mice, […] macrophages were ˜5-fold overrepresented in Balb/c mice bearing metastatic syngeneic 4T1 breast tumors (FIG. 1B). We hypothesized that a peptide that binds to peritoneal macrophages in tumor-bearing mice may also target M2-like TAMs. Mice with 4T1 tumors were injected intraperitoneally (i.p.) with a phage library expressing 9-amino acid cyclic CX7C peptides. After 2 h, peritoneal cells were collected, bound phages were rescued by amplification, and the resulting phage pool was subjected to high-throughput sequencing of the peptide-encoding segment of the phage genome. […]

FAM-CRKQGEAKC: FAM-labeled control peptide CRKQGEAKC (SEQ ID NO: 5) of the same charge and molecular weight as FAM-UNO (not fully specified; FAM label) [reference compound]
homing to melanoma lung metastases [1]: Little to no
accumulation in MEMs / CD206+ cells [2]: no accumulation was detected in CD206^+ cells
accumulation in MEMs / tumor homing [3]: no tumor homing
accumulation in tumor [4]: did not accumulate in the tumor
accumulation in tumor ([4]; listed as FAM-Control peptide): Little to no

CSPGAKVRC [peptide codenamed UNO, identified by in vivo phage display]
position of the phage clone in the list of hits [5]: 2140
overrepresentation of phage in peritoneal cells from 4T1 tumor-bearing mice versus healthy mice ([6]; library injected i.p., 2 h): ~10 fold
representation among sequenced phage clones ([6]; peritoneal cells of 4T1 tumor mice): most highly represented non-truncated peptide
